Experimental findings from article PMC11588247, “Antimicrobial and antioxidant activities of peptide derived from turmeric plant (Curcuma longa L)” (PLOS ONE, 2024) are described below.

Holding throughout (assay type): cell-based
In assay [1] the test system is Acinetobacter baumannii (ATCC 19606). The assay can be described thus: microbe, parasite or virus in culture. As to conditions: Acinetobacter baumannii, ATCC19606; sample 100 μg/mL, 6 h at 37°C, MTT OD570 vs inoculated broth control; read-out: Inhibitory Percentage (Means±SD), Acinetobacter baumannii ATCC 19606. An excerpt:
(§1) Pathogenic microorganism composes of Escherichia coli (ATCC 25922), Staphylococcus aureus (ATCC 25923), Staphylococcus epidermidis (ATCC 12228), Bacillus subtilis (ATCC 6633), Bacillus cereus (ATCC 11778), Pseudomonas aeruginosa (ATCC 27853), Vibrio parahaemolyticus (ATCC 17802), Klebsiella pneumoniae (ATCC 27736), Acinetobacter baumannii (ATCC 19606), Enterobacter cloacae (ATCC 13047), Salmonella enterica (ATCC 13311), and Salmonella Typhi (ATCC 22842) were used in the experiments.
(§2) Bacteria were initially cultured on Tryptic Soy Agar (TSA) plates at 37°C for 12–16 hours. A single colony was transferred to Tryptic Soy Broth (TSB) and incubated at 37°C with gently agitation at 100 rpm, for an additional 12–16 hours. The bacterial concentration was adjusted to an optical density at 600 nm (OD600) of 0.05, corresponding to 4 x 10^7 CFU/mL, before being added to a 96-well plate (50 μL per well). Subsequently, 50 μL of protein hydrolysate or peptide was inoculated into each well at a final concentration of 100 μg/mL, and the mixture was incubated at 37°C with continuous shaking at 100 rpm for 6 hours. Wells with inoculated broth alone served as a negative control, while wells containing Ampicillin (100 μg/mL) served as a positive control. Following incubation, 25 μL of a 100 μg/mL MTT (3-(4,5-dimethylthiazol-2-yl)-2,5-diphenyltetrazolium bromide) solution was added to each well, thoroughly mixed, and incubated at room temperature for 4 hours. The optical density at 570 nm (OD570nm) was subsequently measured using a microplate reader (Synergy H1 Hybrid Multi-Mode Reader, Biotek, Winusky, VT, USA). The percentage of inhibition was calculated using the provided equation: [(OD570control–OD570test)/OD570control]×100 (1)

In assay [2] the test system is Salmonella enterica (ATCC 13311). The assay can be described thus: microbe, parasite or virus in culture. As to conditions: Salmonella enterica, ATCC13311; sample 100 μg/mL, 6 h at 37°C, MTT OD570 vs inoculated broth control; read-out: Inhibitory Percentage (Means±SD), Salmonella enterica ATCC 13311.
Description: as §1, §2

Assay [3] has as its system Staphylococcus aureus (ATCC 25923). The assay can be described thus: microbe, parasite or virus in culture. Conditions: Staphylococcus aureus, ATCC25923; sample 100 μg/mL, 6 h at 37°C, MTT OD570 vs inoculated broth control; read-out: Inhibitory Percentage (Means±SD), Staphylococcus aureus ATCC 25923.
Description: as §1, §2

For assay [4], the system named is Staphylococcus epidermidis (ATCC 12228). The assay can be described thus: microbe, parasite or virus in culture. Conditions: Staphylococcus epidermidis, ATCC12228; sample 100 μg/mL, 6 h at 37°C, MTT OD570 vs inoculated broth control; read-out: Inhibitory Percentage (Means±SD), Staphylococcus epidermidis ATCC 12228.
Description: as §1, §2

In assay [5] the test system is Bacillus cereus (ATCC 11778). The assay can be described thus: Antimicrobial activity assay (broth culture, MTT read-out). Conditions: ATCC11778, sample 100 μg/mL, 6 h at 37°C, MTT OD570 vs inoculated broth control, read-out: Inhibitory Percentage (Means±SD), Bacillus cereus ATCC 11778.
Description: as §1, §2

In assay [6] the test system is Bacillus subtilis (ATCC 6633). The description is as above. Conditions: ATCC6633, sample 100 μg/mL, 6 h at 37°C, MTT OD570 vs inoculated broth control, read-out: Inhibitory Percentage (Means±SD), Bacillus subtilis ATCC 6633.
Description: as §1, §2

The subject of assay [7] is Enterobacter cloacae (ATCC 13047). The assay is described as above. Conditions: ATCC13047, sample 100 μg/mL, 6 h at 37°C, MTT OD570 vs inoculated broth control, read-out: Inhibitory Percentage (Means±SD), Enterobacter cloacae ATCC 13047.
Description: as §1, §2

Assay [8] deals with Escherichia coli (ATCC 25922). The description is as above. Conditions: ATCC25922, sample 100 μg/mL, 6 h at 37°C, MTT OD570 vs inoculated broth control, read-out: Inhibitory Percentage (Means±SD), Escherichia coli ATCC 25922.
Description: as §1, §2

Assay [9] relates to Klebsiella pneumoniae (ATCC 27736). The description is as above. Conditions: ATCC27736, sample 100 μg/mL, 6 h at 37°C, MTT OD570 vs inoculated broth control, read-out: Inhibitory Percentage (Means±SD), Klebsiella pneumoniae ATCC 27736.
Description: as §1, §2

The subject of assay [10] is Pseudomonas aeruginosa (ATCC 27853). The description is as above. Conditions: ATCC27853, sample 100 μg/mL, 6 h at 37°C, MTT OD570 vs inoculated broth control, read-out: Inhibitory Percentage (Means±SD), Pseudomonas aeruginosa ATCC 27853.
Description: as §1, §2

Assay [11] deals with Salmonella Typhi (ATCC 22842). The assay is described as above. As to conditions: Salmonella enterica, 6 h, read-out: Inhibitory Percentage (Means±SD), Salmonella Typhi ATCC 22842.
Description: as §1, §2

Assay [12] deals with Vibrio parahaemolyticus (ATCC 17802). The assay is described as above. Conditions: ATCC17802, sample 100 μg/mL, 6 h at 37°C, MTT OD570 vs inoculated broth control, read-out: Inhibitory Percentage (Means±SD), Vibrio parahaemolyticus ATCC 17802.
Description: as §1, §2

On to `CC1(C)S[C@@H]2[C@H](NC(=O)[C@H](N)c3ccccc3)C(=O)N2[C@H]1C(=O)O` [Ampicillin], for which the inhibition at 100 µg/mL in assay [1] was 42 ± 4.67%; in assay [2] it was 84.6 ± 4.34%; in assay [3] it was -2.72 ± 0.02%; in assay [4] it was 7.42 ± 0.23%; in assay [5] it was 35.9 ± 1.46%; in [6], 96.5 ± 4.03%. Moreover, the inhibition at 100 µg/mL in assay [7] was 15.6 ± 0.89%; in assay [8] it was 82.1 ± 2.62%; in assay [9] it was -19.1 ± 1.32%; in assay [10] it was 16.3 ± 0.87%; in [11], 8.6 ± 0.22%; in assay [12], -45.8 ± 1.54%.
